Assay results: PubChem BioAssay (NCI)
Values joined by “and” are separate entries in the source; they are usually repeats but may differ in a detail not shown here. Equal entries are not always repeated.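 Cells were grown in 96-well plates and exposed to each compound for 48 hours at five concentrations; endpoints were interpolated linearly between bracketing concentrations, or set to the highest concentration if not reached. At the GI50, growth is halved. At the TGI there is no net growth.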

What was measured:
Test in all cases: NCI anticancer screen, dose series, 48 h
K-562 leukemia = system: K-562 leukemia
OVCAR-4 ovarian = system: OVCAR-4 ovarian
OVCAR-5 ovarian = system: OVCAR-5 ovarian
RXF 393 renal = system: RXF 393 renal
SF-539 CNS = system: SF-539 CNS
SK-MEL-28 melanoma = system: SK-MEL-28 melanoma
SR leukemia = system: SR leukemia
SW-620 colon = system: SW-620 colon
T-47D breast = system: T-47D breast
SK-MEL-2 melanoma = system: SK-MEL-2 melanoma

Structure (SMILES)	GI50 (K-562 leukemia)	TGI (K-562 leukemia) [µM]	GI50 (OVCAR-4 ovarian) [µM]	TGI (OVCAR-4 ovarian) [µM]	GI50 (OVCAR-5 ovarian)	TGI (OVCAR-5 ovarian)	GI50 (RXF 393 renal) [µM]	TGI (RXF 393 renal) [µM]	GI50 (SF-539 CNS)	TGI (SF-539 CNS)	GI50 (SK-MEL-28 melanoma) [µM]	TGI (SK-MEL-28 melanoma) [µM]	GI50 (SR leukemia) [µM]	TGI (SR leukemia) [µM]	GI50 (SW-620 colon)	TGI (SW-620 colon)	GI50 (T-47D breast)	TGI (T-47D breast)	GI50 (SK-MEL-2 melanoma) [µM]	TGI (SK-MEL-2 melanoma) [µM]
CCNCCNc1cc(-c2ccc(C(F)(F)F)cc2)c(C#N)c2nc3cc(Cl)c(Cl)cc3n12	0.183 µM	0.365	1.41	3.14	2.03 µM	3.68 µM	1.3	2.62	1.74 µM	3.23 µM	1.4	2.89	0.185	0.439	0.306 µM	1.14 µM	1.94 µM	3.78 µM	–	–
Cc1sc2c(c1C)C(c1ccc(Cl)cc1)=N[C@@H](CC(=O)NCCCN1CCN(C)CC1)c1nnc(C)n1-2	0.299 µM	> 100	0.748	> 100	1.99 µM	> 100 µM	2.08	> 100	0.607 µM	> 100 µM	> 30	> 100	0.108	> 100	> 100 µM	> 100 µM	0.287 µM	> 100 µM	> 44.6	> 100
C=CC(=O)Nc1cccc(Oc2nc(Nc3ccc(N4CCN(C)CC4)cc3OC)ncc2Cl)c1	–	–	2.36	> 39.4	2.29 µM	13 µM	1.49	3.12	1.98 µM	3.72 µM	2.02	4.07	–	–	1.47 µM	2.96 µM	2.87 µM	15.5 µM	2.19	4.3
Nc1ncn([C@H]2C[C@H](OP(=O)(O)OC[C@H]3O[C@@H](n4cnc5c(=O)[nH]c(N)nc54)C[C@@H]3O)[C@@H](CO)O2)c(=O)n1	–	–	> 100	> 100	> 100 µM	> 100 µM	12.2	> 100	> 100 µM	> 100 µM	> 100	> 100	> 100	> 100	> 100 µM	> 100 µM	> 100 µM	> 100 µM	> 100	> 100
COc1ccc(Cn2cc3c(c2-c2cc(OC)c(OC)c(OC)c2)CCc2c(CO)noc2-3)cc1	0.313 µM	> 100	4.2	51.6	0.543 µM	> 82.3 µM	–	–	0.213 µM	0.658 µM	4.35	24.5	0.194	23.2	0.381 µM	> 100 µM	0.376 µM	59.3 µM	0.455	19.5
CN1CCN(CCCN2c3ccccc3Sc3ccc(Cl)cc32)CC1	–	–	5.74	12.4	7.09 µM and 43.1 µM	14 µM and 62.9 µM	–	–	7.49 µM and 51.6 µM	14.6 µM and 87.9 µM	–	–	2.99	11.3	5.72 µM and 41.8 µM	12 µM and 62.5 µM	5.72 µM and 35.5 µM	13 µM and 62.6 µM	40.9	59.5
O=C1c2cc(F)ccc2-c2c1c1ccc([N+](=O)[O-])cc1c(=O)n2CCCBr	22.4 µM	> 100	> 100	> 100	65.5 µM	> 100 µM	–	–	–	–	69.6	> 100	0.0885	1.74	10.2 µM	> 100 µM	7.53 µM	> 100 µM	> 100	> 100
C=C1C(=O)C2=CC1CCC(=O)C1(C)CCC(OC(C)=O)C(C)(C)C1CC2O (stereo not given)	–	–	–	10.8	–	18.9 µM	–	6.31	–	5.19 µM	–	> 46.4	–	–	–	> 100 µM	–	21.8 µM	–	25.6
COc1cc(O)c2c(c1)C(=O)C1=C(C2=O)C(O)C[C@@](C)(O)C1 (stereo not given in full)	–	2.46	–	3.01	–	22.2 µM	–	3.05	–	5.74 µM	–	3.15	–	6.14	–	2.53 µM	–	–	–	5.05
COc1cc(CCNC(=O)OC(C)(C)C)c2c(c1OC)SSSSS2	2.45 µM	21.3	2.05	4.82	3.14 µM	9.23 µM	–	–	3.42 µM	10.4 µM	1.9	3.68	4.48	32.8	2.8 µM	7.69 µM	2.77 µM	5.92 µM	2.45	5.68
COc1cc2nc3cc([N+](=O)[O-])ccc3c(NCCNCC(C)O)c2cc1OC (stereo not given)	–	–	0.886	2.92	2.61 µM	9.41 µM	0.641	2.34	0.693 µM	2.47 µM	–	–	0.286	2.16	0.431 µM	3.09 µM	0.365 µM	2.33 µM	0.63	2.18
COc1ccc2nc3cccc([N+](=O)[O-])c3c(NC(C)CN(C)C)c2c1 (stereo not given)	1.56 µM	4.03	2	4.65	1.73 µM	5.21 µM	–	–	2.66 µM	6.46 µM	3.05	–	2.16	–	1.9 µM	12.5 µM	5.52 µM	36 µM	–	–
O=[N+]([O-])C=C1c2ccccc2-c2ccccc21	–	6.34	–	28.2	–	31.4 µM	–	31.3	–	31.3 µM	–	31.1	–	28.5	–	31.2 µM	–	–	–	39.9
Cc1ccc(OCCOCCOCCOCCOCCOc2ccc(C)n(O)c2=S)c(=S)n1O	0.0383 µM	> 100	0.0339	49.5	0.0634 µM	> 100 µM	0.327	17.1	0.0606 µM	15.1 µM	0.23	> 48.7	–	–	0.0544 µM	> 100 µM	0.0402 µM	> 100 µM	4.81	40.5
COc1cc(/C=C/C(=O)c2c(-c3ccc(F)cc3)nc3sc(C)nn23)cc(OC)c1OC	2.61 µM	15	3.61	85.6	3.46 µM	9.92 µM	2.11	6.66	2.09 µM	4.54 µM	2.19	4.9	1.77	5.27	2.02 µM	4.51 µM	2.09 µM	7.57 µM	–	–
NCCSC(c1ccccc1)(c1ccccc1)c1ccccc1	0.322 µM	1.61	2.94	12.9	1.92 µM	6.95 µM	–	–	1.36 µM	3.21 µM	1.64	3.34	0.34	1.82	0.558 µM	2.48 µM	2.62 µM	8.42 µM	1.18	2.72

Structure (SMILES)	GI50 (K-562 leukemia)	TGI (K-562 leukemia) [µM]	GI50 (OVCAR-4 ovarian) [µM]	TGI (OVCAR-4 ovarian) [µM]	GI50 (OVCAR-5 ovarian)	TGI (OVCAR-5 ovarian)	GI50 (RXF 393 renal) [µM]	TGI (RXF 393 renal) [µM]	GI50 (SF-539 CNS)	TGI (SF-539 CNS)	GI50 (SK-MEL-28 melanoma) [µM]	TGI (SK-MEL-28 melanoma) [µM]	GI50 (SR leukemia) [µM]	TGI (SR leukemia) [µM]	GI50 (SW-620 colon)	TGI (SW-620 colon)	GI50 (T-47D breast)	TGI (T-47D breast)	GI50 (SK-MEL-2 melanoma) [µM]	TGI (SK-MEL-2 melanoma) [µM]
CC(C)=NNC(=S)NC12CC3CC(CC(C3)C1)C2	–	> 100	–	> 100	–	> 100 µM	–	> 100	–	> 100 µM	–	> 100	–	> 100	–	> 100 µM	–	–	–	> 100
[Cu+2].[NH-]C(CC(=O)O)C(=O)O.[NH-]C(CC(=O)O)C(=O)O (stereo not given)	> 100 µM	> 100	99.2	> 100	> 100 µM	> 100 µM	> 100	> 100	–	–	> 100	> 100	> 100	> 100	> 100 µM	> 100 µM	> 100 µM	> 100 µM	> 100	> 100
O=C(c1ccccc1)c1nc2ccc(C(F)(F)F)cc2nc1N1CCN(c2ccccc2)CC1	–	–	–	–	70.5 µM	> 100 µM	35.5	> 100	52.9 µM	> 100 µM	–	–	–	–	34.7 µM	> 100 µM	21.8 µM	48.9 µM	48	> 100
COc1cc2c(c(OC)c1OC)-c1c(c3ccc([N+](=O)[O-])cc3c(=O)n1CCCN)C2=O	0.478 µM	1.33	2.9	12.9	1.77 µM	6.35 µM	2.05	3.86	1.38 µM	3.28 µM	–	–	–	–	1.03 µM	2.35 µM	1.88 µM	7.85 µM	1.21	2.77
CC(=O)OCCCC#CC#Cc1cccc(=O)o1	5.38 µM	28.9	24.9	56.1	22.3 µM	42.4 µM	24.3	43.8	–	–	23.9	55.8	–	–	13.6 µM	37.5 µM	20 µM	51.1 µM	40	> 100
O=C(O)c1cn(C2CC2)c2cc(N3CCN(Cc4c(O)ccc5ccccc45)CC3)c(F)cc2c1=O	> 100 µM	> 100	7	> 100	> 100 µM	> 100 µM	2.68	8.34	2.1 µM	4.9 µM	6.32	> 100	–	–	4.12 µM	> 100 µM	> 100 µM	> 100 µM	15.1	> 100
COC(=O)[C@@H](C)C[C@H](Cc1ccccc1)NC(=O)c1csc([C@@H](C[C@H](C(C)C)N(C)C(=O)[C@@H](NC(=O)[C@H]2CCCN2C)C2CC2)OC(C)=O)n1	0.000352 µM and 0.0025 µM	> 25	–	> 25	–	> 25 µM	0.0025	> 25	0.00172 µM and < 0.0025 µM	0.00659 µM and < 0.0025 µM	0.0324	–	–	> 25	0.000508 µM and 0.0025 µM	> 25 µM	–	–	0.000505	–
N#CC1=C(N)Oc2c(sc3c(Br)cccc23)C1c1ccc(Cl)cc1 (stereo not given)	0.322 µM	3.54	1.13	16.1	1.91 µM	5.98 µM	0.553	3.01	–	–	1.15	4.45	0.342	2.69	0.408 µM	> 100 µM	0.464 µM	11.6 µM	0.672	12.3
CN1C(=O)C2(c3ccccc31)C1CC3C(CO1)C1C2C3(CO)CN1C#N (stereo not given)	–	> 100	–	> 100	–	> 100 µM	–	> 100	–	–	–	> 100	–	> 100	–	–	–	> 100 µM	–	> 100
CN(C)c1ccccc1[CH2][Ga]([Cl])[CH2]c1ccccc1N(C)C	1.46 µM	4.46	1.24	3.07	1.35 µM	2.73 µM	–	–	1.7 µM	3.5 µM	–	–	1.23	4.69	1.76 µM	3.92 µM	1.39 µM	3.78 µM	1.13	2.87
CN(C)CCNC(=O)c1ccc2oc3cc4ccccc4c(=O)n3c2c1	64.1 µM	> 100	7.6	> 100	–	–	23.8	70.4	22 µM	47.3 µM	26.6	> 100	32.9	> 100	28.6 µM	> 100 µM	34.6 µM	> 100 µM	21.4	63.5
O=c1cccc2n1CC1CNC[C@H]2C1	–	> 100	–	> 100	–	> 100 µM	–	> 100	–	–	–	> 100	–	–	–	> 100 µM	–	> 100 µM	–	> 100
Cc1c2c(nn1-c1ccc(S(=O)(=O)NC(=S)NC(=O)c3ccccc3)cc1)-c1ccccc1CC2	6.09 µM	> 100	> 100	> 100	> 100 µM	> 100 µM	–	–	–	–	41.1	> 100	0.759	> 100	> 100 µM	> 100 µM	44.9 µM	> 100 µM	> 100	> 100
COc1ccc(OC)c(/C=C/c2ccnc3ccccc23)c1	–	2.06	–	19.6	–	16 µM	–	2.72	–	0.671 µM	–	20.5	–	8.07	–	16.2 µM	–	29.5 µM	–	–
COc1ccc2c(c1)C(c1cc(OC)c3c(c1)OCO3)C1=C(COC1=O)N2 (stereo not given)	0.264 µM	> 100	1.28	> 100	0.629 µM	> 100 µM	–	–	0.318 µM	–	0.36	> 100	0.183	> 100	0.373 µM	> 100 µM	6.67 µM	> 100 µM	0.347	> 44.8
